Measurements reported in paper PMC12775434, “Ultra-large virtual screening unveils potent agonists of the neuromodulatory orphan receptor GPR139” (Nature Communications, 2025).
Values joined by “and” are separate entries in the source; they are usually repeats but may differ in a detail not shown here. Equal entries are not always repeated. Where two headings read alike, the source gives them in different places.

Tests used:
Type in all cases: cell-based
[1] = molecular target: T1, human muscarinic acetylcholine M1 receptor (M1R) (Homo sapiens, UniProt P11229); assay: Ca2+ mobilization counter-screen in M1R-CHOk1 cells; conditions: individual replicates (Supplementary Figure 5)
T1 sequence (P11229 1-460): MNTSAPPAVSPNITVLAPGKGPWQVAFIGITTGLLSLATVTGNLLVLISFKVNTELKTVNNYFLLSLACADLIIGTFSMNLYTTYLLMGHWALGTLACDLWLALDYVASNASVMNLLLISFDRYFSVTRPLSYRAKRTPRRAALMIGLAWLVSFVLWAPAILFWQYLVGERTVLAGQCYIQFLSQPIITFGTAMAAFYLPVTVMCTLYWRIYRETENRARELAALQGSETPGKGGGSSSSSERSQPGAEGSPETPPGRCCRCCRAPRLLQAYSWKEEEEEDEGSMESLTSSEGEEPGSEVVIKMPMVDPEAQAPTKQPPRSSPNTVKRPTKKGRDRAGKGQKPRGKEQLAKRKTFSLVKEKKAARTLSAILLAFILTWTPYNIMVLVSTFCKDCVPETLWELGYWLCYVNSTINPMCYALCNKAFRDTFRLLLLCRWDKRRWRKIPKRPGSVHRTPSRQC
In short: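 Stable M1R-CHOk1 line; Fluo-4 AM 2 µM, 1 h, 37 °C; HEPES-buffered HBSS pH 7.4 + 1 mM MgCl2/CaCl2 + 2.5 mM probenecid; 10 min equilibration; compound injected post-baseline; ex 485/em 525, 37 °C; DMSO ≤0.3%.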

GPR139 [2] = molecular target: T2, GPR139 (Homo sapiens, UniProt Q6DWJ6); assay: Ca2+ mobilization assay, antagonist mode (EC80 800 nM Lundbeck Cmp 1a after 20 min preincubation), GPR139-CHOk1; conditions: individual replicates (Supplementary Figure 4)
T2 sequence (Q6DWJ6 1-353): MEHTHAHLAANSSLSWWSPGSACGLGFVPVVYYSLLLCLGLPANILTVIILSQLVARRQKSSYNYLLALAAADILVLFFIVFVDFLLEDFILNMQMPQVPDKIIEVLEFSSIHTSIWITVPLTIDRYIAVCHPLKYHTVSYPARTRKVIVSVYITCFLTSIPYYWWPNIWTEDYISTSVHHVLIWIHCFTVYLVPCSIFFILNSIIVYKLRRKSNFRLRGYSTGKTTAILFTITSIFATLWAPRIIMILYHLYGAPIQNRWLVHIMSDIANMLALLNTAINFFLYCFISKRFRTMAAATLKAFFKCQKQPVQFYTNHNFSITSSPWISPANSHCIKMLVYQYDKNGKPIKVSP
In short: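 Fluo-4-loaded GPR139-CHOk1 cells in HEPES-buffered HBSS (pH 7.4, 2.5 mM probenecid) given test compounds at 10 µM, then after 20 min challenged with 800 nM Lundbeck Cmp 1a (EC80). Calcium fluorescence read at 37 °C, 485/525 nm.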

GPR139 [3] = molecular target: T2, GPR139; assay: Ca2+ mobilization assay, agonist mode, stable GPR139-CHOk1 cell line; conditions: for Emax: normalized to Lundbeck Cmp 1a, read-out: Emax (%) Ca2+
In short: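 Agonist activity of compounds is assessed in stably transfected CHO-K1 cells using the calcium dye Fluo-4 at 37 °C in HEPES-buffered HBSS (pH 7.4). Efficacy is expressed relative to the reference agonist Lundbeck Cmp 1a, set as 100%.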

[4] = Agonist mode, individual replicates (Supplementary Figure 4)
[5] = Supplementary Table 2, mean ± SEM
[6] = log [Compound] M = -4.5, individual replicate columns
[7] = log [Compound] M = -5.0, individual replicate columns
[8] = log [Compound] M = -5.5, individual replicate columns
[9] = log [Compound] M = -6.0, individual replicate columns
[10] = log [Compound] M = -6.5, individual replicate columns
[11] = log [Compound] M = -7.0, individual replicate columns
[12] = log [Compound] M = -7.5, individual replicate columns
[13] = log [Compound] M = -8.0, individual replicate columns
[14] = log [Compound] M = -8.5, individual replicate columns
[15] = log [Compound] M = -9.0, individual replicate columns

Emax (GPR139 [3]; [5]) | SMILES | Ca2+ signal (% of Carbachol) [1] | Ca2+ signal (% of Cmp 1a) (GPR139 [2]) | Ca2+ signal (% of Cmp 1a) (GPR139 [3]; [4]) | Ca2+ signal (% of Cmp 1a) (GPR139 [3]; [6]) | Ca2+ signal (% of Cmp 1a) (GPR139 [3]; [7]) | Ca2+ signal (% of Cmp 1a) (GPR139 [3]; [8]) | Ca2+ signal (% of Cmp 1a) (GPR139 [3]; [9]) | Ca2+ signal (% of Cmp 1a) (GPR139 [3]; [10]) | Ca2+ signal (% of Cmp 1a) (GPR139 [3]; [11]) | Ca2+ signal (% of Cmp 1a) (GPR139 [3]; [12]) | Ca2+ signal (% of Cmp 1a) (GPR139 [3]; [13]) | Ca2+ signal (% of Cmp 1a) (GPR139 [3]; [14]) | Ca2+ signal (% of Cmp 1a) (GPR139 [3]; [15]) | also measured
125 ± 12% | Cc1cscc1-c1nc(CC(=O)NC(C)c2ccccc2)no1 (centres unmarked) [Compound 1.1, CC(C1=CC=CC=C1)NC(CC2=NOC(C3=CSC=C3C)=N2)=O] | -5 % of Carbachol and -11 % of Carbachol | -3.33 % of Cmp 1a and 11 % of Cmp 1a and -12 % of Cmp 1a | 96 % of Cmp 1a and 101 % of Cmp 1a and 83 % of Cmp 1a | 130 % of Cmp 1a and 133 % of Cmp 1a and 104 % of Cmp 1a and 91 % of Cmp 1a | 136 % of Cmp 1a and 130 % of Cmp 1a and 133 % of Cmp 1a and 83 % of Cmp 1a | 124 % of Cmp 1a and 109 % of Cmp 1a and 177 % of Cmp 1a and 86 % of Cmp 1a | 113 % of Cmp 1a and 116 % of Cmp 1a and 167 % of Cmp 1a and 85 % of Cmp 1a | 103 % of Cmp 1a and 101 % of Cmp 1a and 147 % of Cmp 1a and 66 % of Cmp 1a | 80 % of Cmp 1a and 83 % of Cmp 1a and 116 % of Cmp 1a and 48 % of Cmp 1a | 60 % of Cmp 1a and 56 % of Cmp 1a and 80 % of Cmp 1a and 40 % of Cmp 1a | 36 % of Cmp 1a and 26 % of Cmp 1a and 21 % of Cmp 1a and 24 % of Cmp 1a | 21 % of Cmp 1a and 9 % of Cmp 1a and -4 % of Cmp 1a and 18 % of Cmp 1a | 19 % of Cmp 1a and 13 % of Cmp 1a and -16 % of Cmp 1a and 5.33 % of Cmp 1a | fold improved potency compared to compound 1 (GPR139 [3]; Ca2+ mobilization EC50): 3 fold; EC50 (GPR139 [3]; GPR139-CHOk1, read-out: EC50, Ca2+ mobilization): 50 nM; Ca2+ signal (% of Cmp 1a) (GPR139 [3]; log [Compound] M -4.5, replicate experiments): 130 % of Cmp 1a and 133 % of Cmp 1a and 104 % of Cmp 1a and 91 % of Cmp 1a; Ca2+ signal (% of Cmp 1a) (GPR139 [3]; log [Compound] M -5.0, replicate experiments): 136 % of Cmp 1a and 130 % of Cmp 1a and 133 % of Cmp 1a and 83 % of Cmp 1a; Ca2+ signal (% of Cmp 1a) (GPR139 [3]; log [Compound] M -5.5, replicate experiments): 124 % of Cmp 1a and 109 % of Cmp 1a and 177 % of Cmp 1a and 86 % of Cmp 1a; Ca2+ signal (% of Cmp 1a) (GPR139 [3]; log [Compound] M -6.0, replicate experiments): 113 % of Cmp 1a and 116 % of Cmp 1a and 167 % of Cmp 1a and 85 % of Cmp 1a; Ca2+ signal (% of Cmp 1a) (GPR139 [3]; log [Compound] M -6.5, replicate experiments): 103 % of Cmp 1a and 101 % of Cmp 1a and 147 % of Cmp 1a and 66 % of Cmp 1a; Ca2+ signal (% of Cmp 1a) (GPR139 [3]; log [Compound] M -7.0, replicate experiments): 80 % of Cmp 1a and 83 % of Cmp 1a and 116 % of Cmp 1a and 48 % of Cmp 1a; Ca2+ signal (% of Cmp 1a) (GPR139 [3]; log [Compound] M -7.5, replicate experiments): 60 % of Cmp 1a and 56 % of Cmp 1a and 80 % of Cmp 1a and 40 % of Cmp 1a; Ca2+ signal (% of Cmp 1a) (GPR139 [3]; log [Compound] M -8.0, replicate experiments): 36 % of Cmp 1a and 26 % of Cmp 1a and 21 % of Cmp 1a and 24 % of Cmp 1a; Ca2+ signal (% of Cmp 1a) (GPR139 [3]; log [Compound] M -8.5, replicate experiments): 21 % of Cmp 1a and 9 % of Cmp 1a and -4 % of Cmp 1a and 18 % of Cmp 1a; Ca2+ signal (% of Cmp 1a) (GPR139 [3]; log [Compound] M -9.0, replicate experiments): 19 % of Cmp 1a and 13 % of Cmp 1a and -16 % of Cmp 1a and 5.33 % of Cmp 1a
113 ± 9% | COc1cc(-c2nc(CC(=O)NC(C)c3ccccc3)no2)ccn1 (centres unmarked) [Compound 1.7, COC1=NC=CC(C2=NC(CC(NC(C3=CC=CC=C3)C)=O)=NO2)=C1] | -3 % of Carbachol and 5.61 % of Carbachol and 2.51 % of Carbachol | -1.33 % of Cmp 1a and 38 % of Cmp 1a and -9 % of Cmp 1a | 105 % of Cmp 1a and 108 % of Cmp 1a and 111 % of Cmp 1a | 109 % of Cmp 1a and 102 % of Cmp 1a and 120 % of Cmp 1a | 102 % of Cmp 1a and 110 % of Cmp 1a and 134 % of Cmp 1a | 95 % of Cmp 1a and 141 % of Cmp 1a and 154 % of Cmp 1a | 70 % of Cmp 1a and 89 % of Cmp 1a and 113 % of Cmp 1a | 61 % of Cmp 1a and 84 % of Cmp 1a and 68 % of Cmp 1a | 40 % of Cmp 1a and 48 % of Cmp 1a and 53 % of Cmp 1a | 13 % of Cmp 1a and 22 % of Cmp 1a and 34 % of Cmp 1a | 1.88 % of Cmp 1a and 6 % of Cmp 1a and 10 % of Cmp 1a | 4.28 % of Cmp 1a and 11 % of Cmp 1a and 7 % of Cmp 1a | -0.46 % of Cmp 1a and 10 % of Cmp 1a and 7 % of Cmp 1a | EC50 (GPR139 [3]; Supplementary Table 2, mean ± SEM, read-out: pEC50 Ca2+ (converted)): 200 nM
